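Cells were grown in 96-well plates and exposed to each compound for 48 hours at five concentrations; endpoints were interpolated linearly between bracketing concentrations, or set to the highest concentration if not reached. TGI is the concentration that stops growth completely.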
Key:
Test in all cases: NCI anticancer screen, dose series, 48 h
OVCAR-5 ovarian = tested on: OVCAR-5 ovarian
COLO 205 colon = tested on: COLO 205 colon
OVCAR-4 ovarian = tested on: OVCAR-4 ovarian
786-0 renal = tested on: 786-0 renal
KM12 colon = tested on: KM12 colon
UACC-62 melanoma = tested on: UACC-62 melanoma
SF-268 CNS = tested on: SF-268 CNS
LOX IMVI melanoma = tested on: LOX IMVI melanoma
NCI-H522 lung = tested on: NCI-H522 lung
T-47D breast = tested on: T-47D breast
A498 renal = tested on: A498 renal
SF-539 CNS = tested on: SF-539 CNS
U251 CNS = tested on: U251 CNS
HCC-2998 colon = tested on: HCC-2998 colon
A549 NSCLC = tested on: A549 NSCLC
NCI-H226 lung = tested on: NCI-H226 lung
SK-OV-3 ovarian = tested on: SK-OV-3 ovarian
OVCAR-3 ovarian = tested on: OVCAR-3 ovarian
MDA-MB-435 = tested on: MDA-MB-435
HCT-116 colon = tested on: HCT-116 colon
K-562 leukemia = tested on: K-562 leukemia
HOP-62 NSCLC = tested on: HOP-62 NSCLC
BT-549 breast = tested on: BT-549 breast
MDA-MB-231 breast = tested on: MDA-MB-231 breast
TK-10 renal = tested on: TK-10 renal
SK-MEL-2 melanoma = tested on: SK-MEL-2 melanoma
HL-60(TB) leukemia = tested on: HL-60(TB) leukemia
NCI-H460 lung = tested on: NCI-H460 lung
MCF7 breast = tested on: MCF7 breast
CAKI-1 renal = tested on: CAKI-1 renal
MALME-3M melanoma = tested on: MALME-3M melanoma
UO-31 renal = tested on: UO-31 renal
OVCAR-8 ovarian = tested on: OVCAR-8 ovarian
SNB-75 CNS = tested on: SNB-75 CNS
HS 578T breast = tested on: HS 578T breast
IGROV1 ovarian = tested on: IGROV1 ovarian
MDA-N = tested on: MDA-N
EKVX NSCLC = tested on: EKVX NSCLC
SR leukemia = tested on: SR leukemia
SN12C renal = tested on: SN12C renal
HT29 colon = tested on: HT29 colon
HOP-92 NSCLC = tested on: HOP-92 NSCLC
PC-3 prostate = tested on: PC-3 prostate
ACHN renal = tested on: ACHN renal
DU-145 prostate = tested on: DU-145 prostate
CCRF-CEM leukemia = tested on: CCRF-CEM leukemia
MOLT-4 leukemia = tested on: MOLT-4 leukemia
SK-MEL-5 melanoma = tested on: SK-MEL-5 melanoma
M14 melanoma = tested on: M14 melanoma
SNB-19 CNS = tested on: SNB-19 CNS
SW-620 colon = tested on: SW-620 colon
SK-MEL-28 melanoma = tested on: SK-MEL-28 melanoma
NCI/ADR-RES ovarian = tested on: NCI/ADR-RES ovarian
UACC-257 melanoma = tested on: UACC-257 melanoma
NCI-H23 lung = tested on: NCI-H23 lung
RPMI-8226 leukemia = tested on: RPMI-8226 leukemia
RXF 393 renal = tested on: RXF 393 renal
SF-295 CNS = tested on: SF-295 CNS
HCT-15 colon = tested on: HCT-15 colon

Measured: TGI

Cc1cccc(N(CCC#N)S(=O)(=O)c2ccccc2)c1
not listed: RXF 393 renal | SF-295 CNS | HCT-15 colon
> 100 µM: all other assays above

Cc1nc2ccc([N+](=O)[O-])cc2c(=O)n1C(=S)Nc1cccc(Cl)c1
19.6 µM: RPMI-8226 leukemia
32.2 µM: KM12 colon
53.6 µM: M14 melanoma | SF-295 CNS
49.1 µM: MALME-3M melanoma
31 µM: HCT-15 colon
66.9 µM: U251 CNS
40.8 µM: SNB-75 CNS
45.9 µM: A498 renal
52.6 µM: NCI-H460 lung
38.1 µM: NCI-H23 lung
72.4 µM: HS 578T breast
36.9 µM: HCT-116 colon
37.1 µM: MDA-MB-231 breast
31.6 µM: COLO 205 colon
69.6 µM: T-47D breast
58.1 µM: OVCAR-3 ovarian
43.1 µM: SF-539 CNS
40.6 µM: SK-MEL-28 melanoma
51.4 µM: SN12C renal
71.8 µM: SK-OV-3 ovarian
39.6 µM: HT29 colon
39.4 µM: MDA-N
56 µM: CAKI-1 renal
23.9 µM: SK-MEL-2 melanoma
28.9 µM: SK-MEL-5 melanoma
62.3 µM: CCRF-CEM leukemia
49.5 µM: MCF7 breast
78 µM: 786-0 renal
50.6 µM: HL-60(TB) leukemia
44.6 µM: HOP-62 NSCLC
26 µM: HCC-2998 colon
48.2 µM: ACHN renal
89.7 µM: NCI/ADR-RES ovarian
54.1 µM: PC-3 prostate
41.2 µM: MDA-MB-435 | UACC-257 melanoma
29.1 µM: UACC-62 melanoma
25.6 µM: HOP-92 NSCLC
98.5 µM: K-562 leukemia
44 µM: NCI-H226 lung
40 µM: RXF 393 renal
53.3 µM: SW-620 colon
67.5 µM: TK-10 renal
35.3 µM: LOX IMVI melanoma
21.5 µM: UO-31 renal
42.9 µM: SF-268 CNS
92 µM: A549 NSCLC
not listed: NCI-H522 lung | BT-549 breast | OVCAR-8 ovarian | IGROV1 ovarian
> 100 µM: all other assays above

c1ccc2c(c1)CCCN1CCc3ccccc3C21 (centres undefined)
46.5 µM: SF-539 CNS
70.4 µM: MDA-N
70.9 µM: SK-MEL-5 melanoma
56.4 µM: MDA-MB-435
not listed: RXF 393 renal
> 100 µM: all other assays above

Source: PubChem BioAssay (NCI)
